According to BigSolDB 2.1:

O=C(Nc1ccccc1-c1ccc(Cl)cc1)c1cccnc1Cl
solubility (mole fraction)
Conditions	288.15 K	293.15 K	298.15 K	303.15 K	308.15 K	313.15 K
in ethanol	0.00163	0.00194	0.0023	0.00282	0.00346	0.00428
in ethyl acetate	0.0076	0.00879	0.0102	0.0117	0.0141	0.0168
in isopropanol	0.000816	0.000983	0.00124	0.00162	0.002	0.00251
in methanol	0.00186	0.0022	0.0026	0.00315	0.00394	0.0047
in n-propyl acetate	0.00718	0.00822	0.00943	0.0112	0.0135	0.016
